Test results reported in the NIST ThermoML archive (doi:10.1021/je300776s).
± gives the expanded uncertainty stated by the source.

Conditions: for mass density: Vibrating tube method; for vapor or sublimation pressure: Closed cell (Static) method; for viscosity: Capillary tube (Ostwald / Ubbelohde) method; for surface tension liquid-gas: Capillary rise

FC(F)(F)/C=C/Cl [(E)-1-chloro-3,3,3-trifluoroprop-1-ene]
Conditions | Critical temperature [K] | mass density [kg/m3] | vapor or sublimation pressure [kPa]
243.34 K, Liquid | – | 1384.7 ± 2.8 | –
243.7 K, Liquid | – | 1383.98 ± 2.8 | –
248.07 K, Liquid | – | 1371.38 ± 2.8 | –
251.12 K, Liquid | – | 1367.4 ± 2.8 | –
253.56 K, Liquid | – | 1362.51 ± 2.8 | –
255.66 K, Liquid | – | 1360.3 ± 2.8 | –
263.09 K, Liquid | – | – | 29.85 ± 0.6
263.36 K, Liquid | – | 1341.34 ± 2.7 | –
271.16 K, Liquid | – | 1323.65 ± 2.7 | –
272.95 K, Liquid | – | – | 44.51 ± 0.9
273.1 K, Liquid | – | – | 47.57 ± 0.96
273.17 K, Liquid | – | 1319.65 ± 2.7 | –
282.95 K, Liquid | – | – | 71.41 ± 1.4
283.08 K, Liquid | – | – | 72.74 ± 1.5
283.26 K, Liquid | – | 1296.48 ± 2.6 | –
290.16 K, Liquid | – | 1280.22 ± 2.6 | –
291.98 K, Liquid | – | 1276.01 ± 2.6 | –
293.05 K, Liquid | – | – | 107.99 ± 2.2
293.08 K, Liquid | – | – | 106.52 ± 2.1
293.21 K, Liquid | – | 1273.37 ± 2.6 | –
302.85 K, Liquid | – | – | 148.21 ± 3
303.01 K, Liquid | – | – | 152.1 ± 3.1
312.25 K, Liquid | – | – | 203.33 ± 4.1
312.93 K, Liquid | – | – | 210.08 ± 4.2
321.85 K, Liquid | – | – | 279.37 ± 5.6
323 K, Liquid | – | – | 282.13 ± 5.7
332.93 K, Liquid | – | – | 382.66 ± 7.7
342.92 K, Liquid | – | – | 502.28 ± 10
352.84 K, Liquid | – | – | 641.35 ± 13
Liquid, Visual observation in an unstirred cell | 438.75 ± 0.17 | – | –

Liquid
Conditions | viscosity [mPa·s]
270.24 K, 100 kPa | 0.705 ± 0.018
292.03 K, 150 kPa | 0.506 ± 0.013
314.25 K, 300 kPa | 0.3851 ± 0.0098
336.37 K, 500 kPa | 0.294 ± 0.008
353.52 K, 800 kPa | 0.2369 ± 0.0061
379.56 K, 1350 kPa | 0.1763 ± 0.0046

Conditions | surface tension liquid-gas [mN/m]
273.15 K | 16.48 ± 0.34
298.15 K | 12.68 ± 0.27
323.15 K | 9.01 ± 0.19
